Results taken from the supplement of paper PMC10307832.

Key:
Test in all cases: relative viability (nuclei count vs DMSO), 5 days (fraction); higher = more cells survive
[1] = compound: CN(C)CC1=CC(=CC=C1)N=C(C2=CC=CC=C2)C3=C(NC4=C3C=CC(=C4)C(=O)N(C)C)O + CC(=O)c1c(C)c2cnc(Nc3ccc(N4CCNCC4)cn3)nc2n(C2CCCC2)c1=O [Palbociclib] (partner 0.5 µM)
In short: (§1)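 One day after seeding in 1536-well plates, lung cancer cell lines were dosed by pin tool. Dosing was either single-drug or a fixed anchor-drug dose plus five library-drug doses (not always all listed) in √10 steps. After 5 days, nuclei were stained in one fix-and-stain step and counted on 4× images, and relative viability is the nuclei count of treated wells over that of vehicle wells, given as the median of duplicate plates.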

[2] = compound: CN(C)CC1=CC(=CC=C1)N=C(C2=CC=CC=C2)C3=C(NC4=C3C=CC(=C4)C(=O)N(C)C)O + COc1cc2c(Oc3ccc(NC(=O)C4(C(=O)Nc5ccc(F)cc5)CC4)cc3F)ccnc2cc1OCCCN1CCOCC1 [Foretinib] (partner 0.25 µM)
In short: as §1

[3] = compound: CN(C)CC1=CC(=CC=C1)N=C(C2=CC=CC=C2)C3=C(NC4=C3C=CC(=C4)C(=O)N(C)C)O + COc1cccc2cc(-c3nc([C@H]4CC[C@H](C(=O)O)CC4)n4ncnc(N)c34)[nH]c12 [OSI-027] (partner 0.5 µM)
In short: as §1

[4] = compound: CN(C)CC1=CC(=CC=C1)N=C(C2=CC=CC=C2)C3=C(NC4=C3C=CC(=C4)C(=O)N(C)C)O
In short: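 For viability, nuclei in each treated well were divided by nuclei in vehicle wells and the median across plates was taken. Lung cancer cell lines in 1536-well plates were pinned with five library-drug doses (not always all listed) spaced by √10, cultured 5 days without medium change, and imaged at 4× after Hoechst staining, with plates passing only at control CV below 25% and at least one doubling.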

Row | Cell Line | relative viability ([1]; first compound 0.08 µM) | relative viability ([1]; first compound 0.253 µM) | relative viability ([1]; first compound 0.8 µM) | relative viability ([1]; first compound 2.53 µM) | relative viability ([1]; first compound 8 µM) | relative viability ([2]; first compound 0.08 µM) | relative viability ([2]; first compound 0.253 µM) | relative viability ([2]; first compound 0.8 µM) | relative viability ([2]; first compound 2.53 µM) | relative viability ([2]; first compound 8 µM) | relative viability ([3]; first compound 0.08 µM) | relative viability ([3]; first compound 0.253 µM) | relative viability ([3]; first compound 0.8 µM) | relative viability ([3]; first compound 2.53 µM) | relative viability ([3]; first compound 8 µM) | relative viability ([4]; 0.08 µM) | relative viability ([4]; 0.253 µM) | relative viability ([4]; 0.8 µM) | relative viability ([4]; 2.53 µM) | relative viability ([4]; 8 µM)
1 | NCI-H2347 | 0.428 | 0.389 | 0.445 | 0.456 | 0.518 | 0.969 | 1.02 | 0.809 | 1.11 | 1 | 0.444 | 0.525 | 0.407 | 0.471 | 0.703 | 0.996 | 1.08 | 0.971 | 1 | 1.09
2 | NCI-H2405 | 0.545 | 0.562 | 0.513 | 0.467 | 0.478 | 1.04 | 1.08 | 1.01 | 0.992 | 1.04 | 0.629 | 0.653 | 0.618 | 0.57 | 0.544 | 1.02 | 1.01 | 1.01 | 0.902 | 0.979
3 | NCI-H3122 | 0.17 | 0.15 | 0.204 | 0.17 | 0.226 | 0.995 | 0.983 | 1.01 | 1.02 | 0.966 | 1.01 | 0.962 | 1.41 | 1.06 | 0.933 | 0.948 | 0.94 | 1.08 | 1.01 | 1.02
4 | PC-3 [JPC-3] | 0.543 | 0.573 | 0.534 | 0.557 | 0.602 | 1.06 | 1.09 | 0.916 | 1.03 | 1.06 | 0.718 | 0.792 | 0.73 | 0.802 | 0.746 | 1.04 | 1.05 | 0.866 | 1.06 | 1.09
5 | PC-14 | 0.474 | 0.412 | 0.635 | 0.614 | 0.537 | 0.9 | 0.903 | 1.02 | 0.934 | 0.951 | 0.913 | 0.85 | 0.968 | 0.734 | 0.563 | 1.12 | 0.951 | 1.08 | 0.988 | 1.02
6 | RERF-LC-KJ | 1.08 | 1.05 | 1.01 | 0.992 | 0.982 | 0.865 | 0.894 | 0.873 | 0.833 | 0.907 | 0.575 | 0.613 | 0.537 | 0.583 | 0.542 | 1.08 | 0.992 | 0.907 | 0.982 | 0.996
7 | SK-LU-1 | 0.335 | 0.363 | 0.34 | 0.362 | 0.369 | 0.891 | 0.881 | 0.857 | 0.651 | 0.581 | 0.373 | 0.366 | 0.429 | 0.346 | 0.244 | 1.04 | 1.02 | 0.996 | 0.993 | 0.866
8 | SK-MES-1 | 0.325 | 0.277 | 0.357 | 0.305 | 0.343 | 0.84 | 0.975 | 0.844 | 0.87 | 0.901 | 0.618 | 0.689 | 0.635 | 0.534 | 0.533 | 1 | 0.993 | 0.934 | 0.938 | 0.914
9 | SW 1573 | 0.323 | 0.42 | 0.367 | 0.34 | 0.317 | 0.919 | 0.808 | 0.759 | 0.867 | 0.973 | 0.581 | 0.644 | 0.626 | 0.638 | 0.521 | 0.983 | 1.08 | 0.978 | 0.935 | 0.853
10 | UMC-11 | 0.351 | 0.311 | 0.326 | 0.306 | 0.291 | 1.01 | 1.07 | 1.06 | 1.05 | 0.997 | 0.492 | 0.489 | 0.565 | 0.404 | 0.368 | 1.05 | 0.934 | 0.98 | 0.924 | 0.957
